Consider 45 molecules from PubChem BioAssay AID687005 (Broad Institute, 2013).

Results filed as inconclusive are left out. The source made the active and inactive calls.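 How the source made its calls: active means Compounds that reduce signal, with fitted half-maximal dose at or under twice the top valid tested dose; inconclusive means Poor fit, or flat curve losing 30 to 70% of signal; inactive means Potency past limit, flat within 30%, or opposite direction.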

One test can be described thus: viability loss in HEK293T cells – cell-based, ATP luminescence, cherry-pick samples, cytotoxicity control, dose response (AID 687005). The following applies: HEK293T viability, ATP luminescence (CellTiter-Glo), 48 h; at 23.5 µM (top of the series). In general terms: ATP-based viability assays read luminescence as a measure of living cells.
Turning to `COc1ccc(CN(C)C[C@H]2OCCCC[C@@H](C)Oc3ccc(NC(=O)c4ccccc4)cc3C(=O)N([C@H](C)CO)C[C@@H]2C)cc1`, the activity change, negative = cytotoxicity was -10.4% (inactive). The same measure, in the same setting: the same measure for `C[C@H]1CN([C@@H](C)CO)C(=O)Cc2cc(NC(=O)C3CC3)ccc2O[C@H]1CN(C)Cc1ccc(-c2ccccc2)cc1`: -24.1% (inactive); for `C[C@@H]1CN([C@H](C)CO)C(=O)c2cc(NC(=O)Nc3cccc4ccccc34)ccc2O[C@H]1CN(C)C(=O)Nc1ccc(C(F)(F)F)cc1`: -31% (inactive); for `COc1cccc(S(=O)(=O)Nc2ccc3c(c2)[C@H]2C[C@H](CC(=O)NCc4cccc(F)c4)O[C@@H](CO)[C@H]2O3)c1`: -22.3% (inactive).

Still in this test, the particulars now being: HEK293T viability, ATP luminescence (CellTiter-Glo), 48 h; at 26 µM (top of the series).
Turning to `O=C(CN(c1ccc(F)cc1)S(=O)(=O)c1ccccc1)N1CCOCC1`, the activity change, negative = cytotoxicity is -20% (inactive). Still for that read-out and setting: the result for `Cc1ccccc1S(=O)(=O)N[C@@H]1CC[C@H](CCNS(=O)(=O)c2cccc(F)c2)O[C@H]1CO` reads -17.7% (inactive); that for `CC(=O)N[C@H]1CC[C@@H](CCNC(=O)C2CCC2)O[C@H]1CO`, 1.44% (inactive). Still for that read-out and setting: the result for `COc1cccc(NC(=S)NC(=O)Cc2ccc(Cl)cc2)c1` reads -6.68% (inactive); that for `CCC(=O)N1[C@H](CO)[C@H](c2ccccc2)[C@@H]1CN(CC)C(=O)c1cccc(F)c1`, 25% (inactive); that for `C[C@H](CO)N1C[C@H](C)[C@H](CN(C)CC2CCCCC2)Oc2c(NS(C)(=O)=O)cccc2C1=O`, 32.2% (inactive). As to `CNC[C@H]1OCCCC[C@H](C)Oc2ccc(NC(=O)CCCN(C)C)cc2C(=O)N([C@H](C)CO)C[C@@H]1C`, the activity change, negative = cytotoxicity is 15.7% (inactive). As to `CC(C)NC(=O)Nc1ccc2c(c1)CC(=O)N([C@H](C)CO)C[C@H](C)[C@@H](CN(C)C(=O)Nc1ccc3c(c1)OCO3)O2`, the activity change, negative = cytotoxicity was 31.9% (inactive). Still for that read-out and setting: the same measure for `O=C(NC(=S)Nc1ccc(CN2CCOCC2)cc1)c1ccc([N+](=O)[O-])cc1`: -19.4% (inactive); for `CNC(=O)C[C@H]1CC[C@H]2[C@@H](COc3ccc(NC(=O)Nc4cccc(C#N)c4)cc3C(=O)N2C)O1`: 23.1% (inactive).

In the case of `CCC(=O)N1[C@H](CO)[C@H](c2ccc(-c3ccc(F)cc3)cc2)[C@@H]1CNC(C)=O`, the activity change, negative = cytotoxicity was -42.1% (inactive). Still for that read-out and setting: the result for `CO[C@@H]1CN(C)C(=O)c2cc(NS(=O)(=O)C3CCCCC3)ccc2OC[C@H](C)NC[C@@H]1C` reads 0.127% (inactive). `C[C@H](CO)N1C[C@H](C)[C@@H](CN(C)C(=O)C2CCOCC2)Oc2ncc(C#CCc3ccccc3)cc2C1=O`: the activity change, negative = cytotoxicity was 6.08% (inactive). In the case of `COc1cccc(-c2cn(CC[C@@H]3CC[C@H](NC(C)=O)[C@@H](CO)O3)nn2)c1`, the activity change, negative = cytotoxicity is 8.26% (inactive). Still for that read-out and setting: the result for `COc1ccccc1-c1cnc2c(c1)C(=O)N([C@H](C)CO)C[C@@H](C)[C@H](CN(C)Cc1cncnc1)O2` reads 28.4% (inactive); that for `CO[C@@H]1CN(C)C(=O)c2ccc(NS(=O)(=O)c3ccc(Oc4ccccc4)cc3)cc2OC[C@H](C)NC[C@H]1C`, -26.5% (inactive); that for `CCCNC(=O)N1C[C@@H]2[C@H](c3ccccc31)[C@H](CO)N2Cc1ccc(OC)cc1`, 2.66% (inactive). Consider `CCC(=O)N1[C@H](CO)[C@H](c2ccccc2)[C@H]1CN(CC)C(=O)c1cccc(F)c1`, for which the activity change, negative = cytotoxicity was -0.378% (inactive). For the molecule `C[C@H]1CN([C@@H](C)CO)C(=O)CCCn2nncc2CO[C@H]1CN(C)C(=O)Oc1cccc2ccccc12`, the activity change, negative = cytotoxicity is -6.41% (inactive). With `C[C@@H]1CN([C@@H](C)CO)C(=O)c2cc(NS(=O)(=O)c3cn(C)cn3)ccc2O[C@@H]1CN(C)C(=O)Nc1cccc2ccccc12`, the activity change, negative = cytotoxicity was -15.2% (inactive). As to `CC(=O)N[C@H]1CC[C@H](CCNC(=O)C2CCC2)O[C@@H]1CO`, the activity change, negative = cytotoxicity is 10.8% (inactive).

As for `CO[C@@H]1CN(C)C(=O)c2ccc(NC(=O)C3CC3)cc2OC[C@H](C)N(Cc2ccc(F)cc2)C[C@H]1C`, the activity change, negative = cytotoxicity was -10.4% (inactive). On the same count and under the same terms, the result for `COC(=O)N(C)C[C@H]1OCc2cn(nn2)CCCC(=O)N([C@@H](C)CO)C[C@@H]1C` reads -1.3% (inactive); that for `C[C@@H]1CN([C@H](C)CO)S(=O)(=O)c2ccc(C#C[C@@H](C)O)cc2O[C@@H]1CN(C)Cc1ccncc1`, -20.8% (inactive); that for `C=CCNC(=O)CN(c1ccc(F)cc1)S(=O)(=O)c1ccc(OC)cc1`, -6.42% (inactive).

For the molecule `CO[C@@H](CN(C)Cc1ccc2c(c1)OCO2)[C@@H](C)CN(C(=O)c1ccccc1)[C@H](C)CO`, the activity change, negative = cytotoxicity was 29.3% (inactive). The same measure, in the same setting: the same measure for `Cc1cccc(C)c1NC(=O)C(C)N1CCCCC1` (stereo not given): 6.43% (inactive); for `COc1ccc(NC(=O)N(C)C[C@H]2OCc3ccccc3-c3c(n(C)c4ccccc34)C(=O)N([C@H](C)CO)C[C@@H]2C)cc1`: -4.07% (inactive); for `CNC[C@H]1Oc2cc(Br)ccc2S(=O)(=O)N([C@H](C)CO)C[C@H]1C`: 37.7% (inactive). Same read-out and setting: the result for `CO[C@@H]1CN(C)C(=O)c2cc(NS(=O)(=O)c3ccc(C)cc3)ccc2OC[C@@H](C)N(C)C[C@@H]1C` reads 5.91% (inactive); that for `CO[C@@H]1CN(C)C(=O)c2ccc(NC(=O)C3CC3)cc2OC[C@H](C)N(C(=O)c2ccncc2)C[C@H]1C`, -27.7% (inactive).

In the case of `O=C1CCC(C(=O)Nc2ccc([N+](=O)[O-])cc2)N1` (stereo not given), the activity change, negative = cytotoxicity is -9.02% (inactive).

As to `COCCNC(=O)C[C@@H]1C[C@@H]2c3cc(NC(=O)C4CCOCC4)ccc3O[C@@H]2[C@@H](CO)O1`, the activity change, negative = cytotoxicity is -3.7% (inactive). Still for that read-out and setting: the result for `C[C@H](CO)N1C[C@H](C)[C@H](CN(C)Cc2ccccc2)Oc2cc(C#Cc3ccccn3)ccc2S1(=O)=O` reads -48.6% (inactive); that for `C/C=C/c1ccc([C@@H]2[C@@H](CNC(=O)c3ccccc3)N(C(C)=O)[C@H]2CO)cc1`, 13.1% (inactive); that for `COc1ccccc1C(=O)Nc1ccc2c(c1)OC[C@H](C)N(C(C)=O)C[C@H](C)[C@H](OC)CN(C)C2=O`, -41.7% (inactive).

On to `CC=Cc1ccc2n(c1=O)C[C@H]1[C@H](CO)[C@@H](C(=O)N3CCOCC3)N(CC3CC3)[C@@H]21` (mixture of isomers), for which the activity change, negative = cytotoxicity is 2.31% (inactive). Still for that read-out and setting: the same measure for `O=C(C1CCOCC1)N1CC[C@@H]2[C@H]1c1cc(Br)ccc1N[C@@H]2CO`: 8.11% (inactive).

Still in this test, the particulars now being: HEK293T viability, ATP luminescence (CellTiter-Glo), 48 h; at 28.5 µM (top of the series).
Turning to `C[C@@H]1CN([C@@H](C)CO)C(=O)CCCn2cc(nn2)CO[C@@H]1CN(C)C(=O)CCCN(C)C`, the activity change, negative = cytotoxicity is 6.9% (inactive).

The test is the same for the next values; noted with them: HEK293T viability, ATP luminescence (CellTiter-Glo), 48 h; at 30 µM (top of the series).
Take `CNC(=O)CN(c1ccc(C)cc1)S(=O)(=O)c1ccccc1`: the activity change, negative = cytotoxicity was -17.7% (inactive).

Still in this test, the particulars now being: HEK293T viability, ATP luminescence (CellTiter-Glo), 48 h; at 46 µM (top of the series).
For the molecule `CCCC(=O)N1CCC1(C)C(=O)Nc1ccc(C)cc1` (stereo not given), the activity change, negative = cytotoxicity is -12.7% (inactive).
